Data reported in patent publication US12473262B2, “Aryl hydrocarbon receptor activators” (Oregon State University, priority 2019, dated 2025).
pIC50: −log10 of the molar value. Where two headings read alike, the source gives them in different places.

How the values were obtained:
CYP-2C19 = CYP-2C19 (Homo sapiens (Human), UniProt P33261); test: CYP panel profile: P450 inhibition, CYP-2C19; format: in vitro ADME; conditions: human liver microsomes
Experimental: (§1) 5. CYP Panel Profile: P450 Inhibition
(§2) From 10 mM stock solutions of test compounds, a dilution plate was prepared diluting serially starting from 5 mM up to 2 μM in Acetonitrile/DMSO or Methanol/DMSO Human liver Microsomes were added at required concentration as per specific CYP isoform in a deep well assay plate (1A2, 2C9, 2D6, 2B6, 2C8, 2C19, and 3A4). Compounds were spiked in all wells from dilution plate at final concentrations starting from 50 μM up to 0.02 μM, except for positive and negative control. Specific substrate were added to all wells and reactions were pre-incubated for 10 min. To start reactions, NADPH was added to all wells at 1 mM final concentration. Assay plate was mixed by vortexing and incubated at 37° C. for […] for 3A4.20 min for (1A2, 2C9, 2B6, 2C8, 2D6) and […] for 2C19. A quencher with chilled acetonitrile suitable internal standard was added. Samples were centrifuged and supernatants were collected and subjected to LC-MS/MS analysis for determination.

CYP-2C8 = CYP-2C8 (Homo sapiens (Human), UniProt P10632); test: CYP panel profile: P450 inhibition, CYP-2C8; format: in vitro ADME; conditions: human liver microsomes
Sequence of CYP-2C8 (P10632 whole entry): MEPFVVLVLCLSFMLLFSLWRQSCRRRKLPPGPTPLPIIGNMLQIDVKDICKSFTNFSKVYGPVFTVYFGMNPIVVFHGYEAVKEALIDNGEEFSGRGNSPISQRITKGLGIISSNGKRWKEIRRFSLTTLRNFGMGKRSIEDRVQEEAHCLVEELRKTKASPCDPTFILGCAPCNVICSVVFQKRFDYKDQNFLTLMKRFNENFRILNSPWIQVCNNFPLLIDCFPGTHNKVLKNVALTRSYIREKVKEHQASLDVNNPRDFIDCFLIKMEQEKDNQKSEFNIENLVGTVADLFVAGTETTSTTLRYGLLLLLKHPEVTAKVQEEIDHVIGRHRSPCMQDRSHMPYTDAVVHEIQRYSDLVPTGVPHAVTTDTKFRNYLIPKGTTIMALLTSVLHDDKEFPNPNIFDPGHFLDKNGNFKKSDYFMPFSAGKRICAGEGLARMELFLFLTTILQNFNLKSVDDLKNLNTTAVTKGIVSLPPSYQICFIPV
Experimental: as §1, §2

[1] = biological target: aryl hydrocarbon receptor (AhR) (Mus musculus (Mouse), UniProt P30561); test: AhR ligand screening: AhRE-luciferase reporter in transfected Hepa1 cells; format: cell-based; conditions: for Fold @ 1 nM: fold change of luciferase expression at 1 nM test compound relative to vehicle (0.1% DMSO); for Fold @ 100 nM: fold change of luciferase expression at 100 nM test compound relative to vehicle (0.1% DMSO); for Fold @ 10 uM: fold change of luciferase expression at 10 uM test compound relative to vehicle (0.1% DMSO); for Fold relative to benchmark @ 100 nM: luciferase expression at 100 nM test compound relative to 100 nM benchmark compound 11-cl-BBQ
Sequence of aryl hydrocarbon receptor (AhR) (P30561 10-805): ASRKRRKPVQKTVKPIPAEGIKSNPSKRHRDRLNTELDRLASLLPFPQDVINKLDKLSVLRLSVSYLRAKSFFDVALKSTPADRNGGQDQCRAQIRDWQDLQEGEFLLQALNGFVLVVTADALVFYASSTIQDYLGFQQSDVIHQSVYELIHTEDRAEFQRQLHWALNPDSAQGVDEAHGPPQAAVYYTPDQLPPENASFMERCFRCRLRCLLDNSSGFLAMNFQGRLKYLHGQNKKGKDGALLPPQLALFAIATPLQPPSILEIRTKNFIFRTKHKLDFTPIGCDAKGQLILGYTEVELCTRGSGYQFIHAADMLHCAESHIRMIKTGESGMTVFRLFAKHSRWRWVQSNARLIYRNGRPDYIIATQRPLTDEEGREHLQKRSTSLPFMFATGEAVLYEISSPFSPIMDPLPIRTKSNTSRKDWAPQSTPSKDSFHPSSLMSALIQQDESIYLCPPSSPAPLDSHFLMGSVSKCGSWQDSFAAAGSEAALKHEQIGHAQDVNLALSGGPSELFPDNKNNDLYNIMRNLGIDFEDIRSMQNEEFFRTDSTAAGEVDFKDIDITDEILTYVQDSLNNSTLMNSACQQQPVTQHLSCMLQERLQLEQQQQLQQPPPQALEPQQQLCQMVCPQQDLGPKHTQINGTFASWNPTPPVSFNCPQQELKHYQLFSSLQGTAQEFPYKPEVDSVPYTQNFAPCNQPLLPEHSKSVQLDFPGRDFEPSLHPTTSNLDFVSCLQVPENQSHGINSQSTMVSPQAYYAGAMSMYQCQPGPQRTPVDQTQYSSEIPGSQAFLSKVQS
Sequence of aryl hydrocarbon receptor (AhR) (P53762 whole entry partner): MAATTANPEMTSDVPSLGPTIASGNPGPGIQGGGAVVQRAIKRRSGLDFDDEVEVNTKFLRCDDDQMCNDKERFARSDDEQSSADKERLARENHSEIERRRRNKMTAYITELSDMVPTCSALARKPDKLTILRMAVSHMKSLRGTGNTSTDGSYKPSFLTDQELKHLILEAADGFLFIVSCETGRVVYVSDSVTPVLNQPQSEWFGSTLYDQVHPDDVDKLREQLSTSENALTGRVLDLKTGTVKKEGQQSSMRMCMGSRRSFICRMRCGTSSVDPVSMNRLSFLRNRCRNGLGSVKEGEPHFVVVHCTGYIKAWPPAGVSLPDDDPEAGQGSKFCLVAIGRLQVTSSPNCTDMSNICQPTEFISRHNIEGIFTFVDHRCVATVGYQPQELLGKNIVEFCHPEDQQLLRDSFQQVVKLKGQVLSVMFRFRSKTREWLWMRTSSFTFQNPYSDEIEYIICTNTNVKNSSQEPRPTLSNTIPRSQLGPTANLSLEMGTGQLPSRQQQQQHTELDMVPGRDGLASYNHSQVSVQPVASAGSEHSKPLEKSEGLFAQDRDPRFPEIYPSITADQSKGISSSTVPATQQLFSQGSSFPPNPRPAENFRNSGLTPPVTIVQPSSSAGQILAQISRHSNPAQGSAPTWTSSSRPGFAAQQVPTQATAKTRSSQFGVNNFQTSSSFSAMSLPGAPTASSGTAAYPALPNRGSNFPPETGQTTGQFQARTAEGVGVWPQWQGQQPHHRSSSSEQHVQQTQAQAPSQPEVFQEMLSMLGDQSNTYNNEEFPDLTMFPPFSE
How it was run: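 Values are fold luciferase induction relative to vehicle (0.1% DMSO), read by luminometry of lysates from Hepa1 cells carrying an AhRE-driven luciferase reporter. Cells were seeded at 1×10^4 per well, grown overnight and treated with compound before lysis.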

CYP-2D6 = CYP-2D6 (Homo sapiens (Human), UniProt P10635); test: CYP panel profile: P450 inhibition, CYP-2D6; format: in vitro ADME; conditions: human liver microsomes
Sequence of CYP-2D6 (P10635 whole entry): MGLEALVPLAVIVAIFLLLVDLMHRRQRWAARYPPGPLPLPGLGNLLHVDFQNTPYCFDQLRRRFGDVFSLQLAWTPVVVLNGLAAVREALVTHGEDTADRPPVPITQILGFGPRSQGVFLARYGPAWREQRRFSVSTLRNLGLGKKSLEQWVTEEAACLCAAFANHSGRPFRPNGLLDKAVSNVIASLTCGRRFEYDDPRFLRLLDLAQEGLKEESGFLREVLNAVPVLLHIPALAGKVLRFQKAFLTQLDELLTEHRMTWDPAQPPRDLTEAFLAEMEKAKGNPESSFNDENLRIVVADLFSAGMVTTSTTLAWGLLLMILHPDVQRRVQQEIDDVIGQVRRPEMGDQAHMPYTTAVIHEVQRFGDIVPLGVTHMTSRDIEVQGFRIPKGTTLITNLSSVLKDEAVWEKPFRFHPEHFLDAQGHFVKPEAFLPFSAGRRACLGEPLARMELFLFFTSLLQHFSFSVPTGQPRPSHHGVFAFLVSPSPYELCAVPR
Experimental: as §1, §2

CYP-3A4 = CYP-3A4 (Homo sapiens (Human), UniProt P08684); test: CYP panel profile: P450 inhibition, CYP-3A4; format: in vitro ADME; conditions: human liver microsomes
Sequence of CYP-3A4 (P08684 whole entry): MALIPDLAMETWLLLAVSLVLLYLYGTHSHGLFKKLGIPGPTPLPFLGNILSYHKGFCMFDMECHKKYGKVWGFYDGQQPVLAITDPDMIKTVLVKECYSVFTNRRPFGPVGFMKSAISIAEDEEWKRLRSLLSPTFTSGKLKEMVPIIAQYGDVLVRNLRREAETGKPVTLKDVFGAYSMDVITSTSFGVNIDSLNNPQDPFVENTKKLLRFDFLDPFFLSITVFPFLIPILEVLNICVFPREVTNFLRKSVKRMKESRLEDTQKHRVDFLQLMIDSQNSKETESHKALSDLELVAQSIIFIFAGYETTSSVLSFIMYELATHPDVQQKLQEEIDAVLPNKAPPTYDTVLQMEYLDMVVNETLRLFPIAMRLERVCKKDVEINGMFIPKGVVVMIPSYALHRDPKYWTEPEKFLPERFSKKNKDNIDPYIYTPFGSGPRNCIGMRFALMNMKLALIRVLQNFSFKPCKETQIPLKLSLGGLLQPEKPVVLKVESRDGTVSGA
Experimental: as §1, §2

CYP-1A2 = CYP-1A2 (Homo sapiens (Human), UniProt P05177); test: CYP panel profile: P450 inhibition, CYP-1A2; format: in vitro ADME; conditions: human liver microsomes; read-out: CYP-1A2 IC50
Sequence of CYP-1A2 (P05177 whole entry): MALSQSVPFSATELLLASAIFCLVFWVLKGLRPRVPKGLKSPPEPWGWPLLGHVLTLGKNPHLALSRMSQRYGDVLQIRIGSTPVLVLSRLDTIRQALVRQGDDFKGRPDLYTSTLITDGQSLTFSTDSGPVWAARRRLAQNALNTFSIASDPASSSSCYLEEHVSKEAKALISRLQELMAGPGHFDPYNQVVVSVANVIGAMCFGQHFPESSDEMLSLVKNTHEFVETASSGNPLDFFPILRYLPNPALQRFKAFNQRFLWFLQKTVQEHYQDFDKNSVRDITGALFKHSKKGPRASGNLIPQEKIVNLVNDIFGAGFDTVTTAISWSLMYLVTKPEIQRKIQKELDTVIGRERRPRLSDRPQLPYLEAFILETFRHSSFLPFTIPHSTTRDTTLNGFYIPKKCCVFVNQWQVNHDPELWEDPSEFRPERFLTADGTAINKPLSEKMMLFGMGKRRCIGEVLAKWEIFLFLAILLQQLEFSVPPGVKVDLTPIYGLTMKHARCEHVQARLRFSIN
Experimental: as §1, §2

CYP-2C9 = CYP-2C9 (Homo sapiens (Human), UniProt P11712); test: CYP panel profile: P450 inhibition, CYP-2C9; format: in vitro ADME; conditions: human liver microsomes
Experimental: as §1, §2

CYP-2B6 = CYP-2B6 (Homo sapiens (Human), UniProt P20813); test: CYP panel profile: P450 inhibition, CYP-2B6; format: in vitro ADME; conditions: human liver microsomes
Sequence of CYP-2B6 (P20813 whole entry): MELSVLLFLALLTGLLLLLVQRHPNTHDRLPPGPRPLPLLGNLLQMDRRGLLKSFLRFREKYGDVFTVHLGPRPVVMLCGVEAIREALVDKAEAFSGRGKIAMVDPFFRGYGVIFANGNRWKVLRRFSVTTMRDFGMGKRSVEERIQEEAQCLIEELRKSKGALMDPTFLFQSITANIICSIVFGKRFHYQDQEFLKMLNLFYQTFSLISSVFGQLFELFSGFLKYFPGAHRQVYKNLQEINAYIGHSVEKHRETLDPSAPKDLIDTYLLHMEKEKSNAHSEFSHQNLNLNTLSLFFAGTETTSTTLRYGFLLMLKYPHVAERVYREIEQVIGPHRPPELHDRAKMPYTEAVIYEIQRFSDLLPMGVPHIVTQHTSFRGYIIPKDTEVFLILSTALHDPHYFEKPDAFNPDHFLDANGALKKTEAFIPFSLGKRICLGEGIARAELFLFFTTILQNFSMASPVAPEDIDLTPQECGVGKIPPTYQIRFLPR
Experimental: as §1, §2

[2] = Liver microsomal stability, rat; conditions: for Rem @ RLM × 30 min: rat liver microsomes, 1 μM compound, 0.5 mg/ml protein; for half-life at 1 μM / microsomal CLint at 1 μM: rat, liver microsomes, pH 7.4
[3] = Liver microsomal stability, mouse; conditions: for Rem @ MLM × 30 min: mouse liver microsomes, 1 μM compound, 0.5 mg/ml protein; for half-life at 1 μM / microsomal CLint at 1 μM: mouse, liver microsomes, pH 7.4
[4] = In vivo PK study, intravenous and oral administration in male mice; set-up: species or system mouse; conditions: plasma; for C0: read-out: C0_Cmax
Experimental: In Vivo PK Study Pharmacokinetics of Exemplary Compounds 362 and 893 Following an Intravenous and Oral Administration in Male C57BL/6J Mice.
Male C57BL/6J mice, approximately 8-10 weeks old, were obtained from the vivarium of Fundación Ciencia & Vida Chile (Santiago, Chile). Dosing solution of Compound 362 for PO administration was formulated in a vehicle containing 40% DMSO, 20% Kolliphor EL, 40% Propylene Glycol at 0.8 mg/mL. Dosing solution of Compound 362 for IV administration was formulated in a vehicle containing 30% DMSO, 20% Kolliphor EL, 50% PBS at […].
Male […] mice, approximately 8-11 weeks old, 22-27 grams were obtained from the vivarium Fundación Ciencia & Vida Chile (Santiago, Chile). Animals were acclimated for a minimum period of 4 days upon arrival at the testing facility. Animals were weighed, identified by marking the tail with numbers using a non-toxic permanent marker and designated into the following treatment groups on the day of dosing:
Group 1 animals received an IV administration via caudal vein of 2 mg/kg PRXS0362 dosing solution.
Group 2 animals received a PO administration via feeding tubes (20 gauge) of 8 mg/kg PRXS0362 dosing solution.
Terminal whole blood was collected via cardiac puncture for group 1 at the following time points: 5, 10, 15, 30, 60, 120, 240, 360, and 480 minutes. Non-dosed mice were used to collect samples of zero time points. For the group 2 at the following time point: 15, 30, 60, 120, 240, 360, and 480 minutes.
Whole blood, approximately 300 μL per time point, was collected into microtainer tubes with EDTA (K2). Blood samples were centrifuged immediately at approximately 9,000 G at 4° C. for 5 minutes and plasma separated. Plasma samples were placed into individually labeled tubes and stored in a −80° C. freezer prior to LC/MS/MS analysis.
The whole brain was collected at each point only for both groups, for this the animals were euthanized with CO2, decapitated, the brain was extracted weighed, frozen in liquid nitrogen and stored at −80° C. prior to LC/MS/MS analysis.
Compound 893 was tested by the same protocol as above.

[5] = Liver microsomal stability, human; conditions: for Rem @ HLM × 30 min: human liver microsomes, 1 μM compound, 0.5 mg/ml protein; for half-life at 1 μM / microsomal CLint at 1 μM: human, liver microsomes, pH 7.4
Experimental: The assessment of metabolic stability of testing compounds was performed using human, mouse, rat, dog and monkey liver microsomes (20 mg protein/ml). Each reaction mixture contained 42.5 μL of 0.1 M potassium phosphate buffer pH 7.4, containing respective LM protein (final concentration 0.5 mg/ml). 2.5 μL of the compound stock solution was added in it (1 μM final concentration). The reaction was initiated by the addition of 5 μL NADPH solution (final Concentration 1 mM). At different time points (0, 5, 15, and 30 minutes), samples were quenched with 200 μL of cold acetonitrile containing ISTD Propranolol. Samples were centrifuged at 3500 rpm for 20 mM at 4° C. Supernatant was subjected to LC-MS/MS analysis for quantification. Verapamil was used as a positive control.

Sequence of CYP-2C19 (P33261 whole entry): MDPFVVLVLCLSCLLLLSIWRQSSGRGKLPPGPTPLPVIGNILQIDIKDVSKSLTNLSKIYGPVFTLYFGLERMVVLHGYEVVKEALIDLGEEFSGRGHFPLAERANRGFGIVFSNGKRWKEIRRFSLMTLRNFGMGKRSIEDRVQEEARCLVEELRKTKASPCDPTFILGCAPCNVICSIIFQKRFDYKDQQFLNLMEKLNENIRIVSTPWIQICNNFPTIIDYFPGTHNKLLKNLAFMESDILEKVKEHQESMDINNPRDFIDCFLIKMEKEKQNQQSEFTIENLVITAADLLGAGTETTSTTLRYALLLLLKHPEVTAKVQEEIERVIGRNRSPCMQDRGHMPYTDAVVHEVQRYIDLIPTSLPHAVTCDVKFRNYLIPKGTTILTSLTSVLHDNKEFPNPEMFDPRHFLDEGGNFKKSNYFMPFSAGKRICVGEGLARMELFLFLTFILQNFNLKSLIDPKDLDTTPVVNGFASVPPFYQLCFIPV

| Structure (SMILES) | pIC50 (CYP-2C19) | pIC50 (CYP-2C8) | Fold @ 1 nM [1] [fold] | Fold @ 100 nM [1] [fold] | Fold @ 10 uM [1] [fold] | Fold relative to benchmark @ 100 nM [1] [fold] | pIC50 (CYP-2D6) | pIC50 (CYP-3A4) | pIC50 (CYP-1A2) | pIC50 (CYP-2C9) | pIC50 (CYP-2B6) | Rem @ RLM × 30 min [2] [%] | half-life at 1 μM [2] [min] | microsomal CLint at 1 μM [2] [µL/min/mg] | Rem @ MLM × 30 min [3] [%] | half-life at 1 μM [3] [min] | microsomal CLint at 1 μM [3] [µL/min/mg] | Rem @ HLM × 30 min [5] [%] | half-life at 1 μM [5] [min] | microsomal CLint at 1 μM [5] [µL/min/mg] | also measured |
| --- | --- | --- | --- | --- | --- | --- | --- | --- | --- | --- | --- | --- | --- | --- | --- | --- | --- | --- | --- | --- | --- |
| O=C(c1ccc(F)c(F)c1)n1c(-c2cccc3ccccc23)nc2cc(Cl)ccc21 [Compound 530] | 5.47 | 5.03 | 2 | 39 | 56 | 0.98 | < 4.30 | 5.43 | 6.30 | 5.30 | 5.03 |  |  |  |  |  |  |  |  |  |  |
| O=C(c1c(F)cc(Br)cc1F)n1c(-c2cccc3ccccc23)nc2cc(Cl)ccc21 [Compound 638] | 5.47 | 5.74 | 1 | 12 | 20 | 1.17 | 4.84 | 5.09 | 6.52 | 5.28 | 4.94 |  |  |  |  |  |  |  |  |  |  |
| O=C(c1ccc(F)c(F)c1)n1c(-c2cccc3ccccc23)nc2cc(Cl)ccc21 [Compound 529] | 5.44 | 5.02 | 2 | 41 | 52 | 1.03 | < 4.30 | 5.92 | 6.22 | 5.46 | 5.02 |  |  |  |  |  |  |  |  |  |  |
| O=c1c2cccc3cccc(c32)c2nc3cc(Cl)ccc3n12 [Compound 362, 6-chloro-3,10-diazapentacyclo[10.7.1.0^2,10.0^4,9.0^16,20]icosa-1(19),2,4(9),5,7,12,14,16(20),17-nonaen-11-one] |  |  | 16 | 22 |  | 1 |  |  |  |  |  | 14.5 | 11.4 | 121 | 12.0 | 9.8 | 141 |  |  |  | CL_CL/F ([4]; IV 2 mg/Kg): 4.418 L/[Kg*h]; Vd_Vd/F ([4]; IV 2 mg/Kg): 5.67 L/kg; thalf ([4]; IV 2 mg/Kg): 0.889 h; CL_CL/F ([4]; PO 8 mg/Kg): 7.86 L/[Kg*h]; Vd_Vd/F ([4]; PO 8 mg/Kg): 8.314 L/kg; thalf ([4]; PO 8 mg/Kg): 0.733 h; AUC(0-inf) ([4]; mouse, IV 2 mg/Kg): 453 ng·h/mL; AUC(0-t) ([4]; mouse, IV 2 mg/Kg): 451 ng·h/mL; MRT ([4]; mouse, IV 2 mg/Kg): 52.3 min; C0 ([4]; mouse, IV 2 mg/Kg): 215 ng/mL; bioavailability ([4]; mouse, PO 8 mg/Kg vs IV 2 mg/Kg): 56.2%; AUC(0-inf) ([4]; mouse, PO 8 mg/Kg): 1020 ng·h/mL; AUC(0-t) ([4]; mouse, PO 8 mg/Kg): 1020 ng·h/mL; MRT ([4]; mouse, PO 8 mg/Kg): 98 min; Tmax ([4]; mouse, PO 8 mg/Kg): 60 min; C0 ([4]; mouse, PO 8 mg/Kg): 427 ng/mL |
| O=C(c1cccc2ccccc12)C1CN(C(=O)c2ccccc2)c2ccc(Cl)cc21 (stereo not shown) [Compound 521] |  |  | 1 | 1 | 1 | 0.07 |  |  |  |  |  | 45.5 | 24.8 | 56 | 64.6 | 60.9 | 23 | 58.0 | 40.3 | 34 |  |
| O=C(c1cccc(Cl)c1Cl)c1c[nH]c2ccc(Cl)cc12 [Compound 889] |  |  | 1 | 1 | 5 | 0.02 |  |  |  |  |  | 33.5 | 25.6 | 54.2 | 43.5 | 33.9 | 40.9 | 30.2 | 22.6 | 61.2 |  |
| CN(C)c1ccc(C(=O)c2c[nH]c3ccc(Cl)cc23)cc1 [Compound 891] |  |  | 1 | 1 | 21 | 0.02 |  |  |  |  |  | 45.2 | 31 | 44.7 | 52.4 | 36.3 | 38.2 | 54.3 | 42.4 | 32.7 |  |
